Measurements published in BindingDB's records for doi:10.7270/Q2DV1HJQ (The Scripps Research Institute Molecular Screening Center, 2014).

These compounds were tested against Disintegrin and metalloproteinase domain-containing protein 17 (Homo sapiens, UniProt P78536) (assay: inhibition of ADAM17 substrate cleavage – biochemical, quenched FRET substrate, counter-screen for ADAM10 exosite inhibitor project, dose response (AID 743253)).
Sequence of Disintegrin and metalloproteinase domain-containing protein 17 (P78536 whole entry, the tested form may be a part): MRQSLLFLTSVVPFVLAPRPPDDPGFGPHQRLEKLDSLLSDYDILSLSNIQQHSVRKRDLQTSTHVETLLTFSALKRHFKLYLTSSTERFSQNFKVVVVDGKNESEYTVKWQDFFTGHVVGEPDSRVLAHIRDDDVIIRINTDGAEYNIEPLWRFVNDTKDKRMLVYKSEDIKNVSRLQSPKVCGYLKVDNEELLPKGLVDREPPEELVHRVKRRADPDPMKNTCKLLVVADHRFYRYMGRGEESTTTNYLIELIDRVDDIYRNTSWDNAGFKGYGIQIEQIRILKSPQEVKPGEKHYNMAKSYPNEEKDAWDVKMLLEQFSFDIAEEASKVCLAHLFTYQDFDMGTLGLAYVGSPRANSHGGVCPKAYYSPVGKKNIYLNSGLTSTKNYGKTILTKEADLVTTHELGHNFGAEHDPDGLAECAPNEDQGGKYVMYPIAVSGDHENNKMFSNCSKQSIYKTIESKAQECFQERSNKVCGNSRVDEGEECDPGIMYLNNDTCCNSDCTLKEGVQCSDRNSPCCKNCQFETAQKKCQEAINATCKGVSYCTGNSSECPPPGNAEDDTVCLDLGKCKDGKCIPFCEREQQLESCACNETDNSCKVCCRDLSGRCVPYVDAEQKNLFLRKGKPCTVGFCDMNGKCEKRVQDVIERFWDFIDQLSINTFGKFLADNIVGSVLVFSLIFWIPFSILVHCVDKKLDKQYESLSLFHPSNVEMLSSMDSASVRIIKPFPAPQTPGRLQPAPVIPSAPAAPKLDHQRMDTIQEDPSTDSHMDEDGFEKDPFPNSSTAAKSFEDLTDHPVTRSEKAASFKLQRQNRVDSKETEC

Row | Compound | IC50
1 | N#CCSc1nc2cc(C(=O)N3CCC(C(N)=O)CC3)ccc2c2nc3ccccc3n12 [1-({6-[(cyanomethyl)thio]benzimidazo[1,2-c]quinazolin-3-yl}carbonyl)piperidine-4-carboxamide] | 69.6 µM
2 | COc1ccc(N2C(=O)NC(=O)C(=Cc3c[nH]c4ccc(Br)cc34)C2=O)c(OC)c1 [(5E)-5-[(5-bromo-1H-indol-3-yl)methylene]-1-(2,4-dimethoxyphenyl)pyrimidine-2,4,6(1H,3H,5H)-trione] | 12 µM
3 | O=C1C=CC([N+](=O)[O-])=CC1CN=Nc1ccccn1 (stereo not drawn) [MLS000585015] | 9.75 µM
